Experimental data published in PMC8350397, “GSK137, a potent small-molecule BCL6 inhibitor with in vivo activity, suppresses antibody responses in mice” (The Journal of Biological Chemistry, 2021).

What was measured:
BCL6 BTB-POZ domain = details: read-out: potency on BCL6 BTB-POZ domain; cited from earlier work
mouse BCL6 and SMRT = molecular target: T1, mouse BCL6 and SMRT (Mus musculus, UniProt P41183, C67R/C84N/C8Q); assay: BCL6 TR-FRET assay, mouse BCL6 and SMRT; format: binding
T1 construct: BCL6-Flag-6H-Avi (5-129) C8Q, C67R, C84N proteins; Flag (C); 6H (His6) (C); made in house; host or cells: E. coli
Experimental: (§1) Human, mouse and rat BCL6-Flag-6H-Avi (5-129) C8Q, C67R, C84N proteins were expressed in E. coli according to standard procedures and purified on Ni-NTA, followed by ion exchange on a Source 30Q column and size exclusion on an Superdex 200 column in a buffer of 20 mM Tris, 250 mM NaCl, 5 mM DTT, 5% glycerol, pH 8.5. All protein purities were estimated to be >90% by SDS-PAGE and the expected masses were confirmed by MS analysis. For TR-FRET assay protein was enzymatically biotinylated by treatment of protein at 100 µM with a 2 fold molar excess of biotin in the presence of 2 mM ATP and 1 µM BirA enzyme in a buffer of 50 mM bicine pH 8.3, 10 mM MgCl2 at 30 °C for 1 hour, followed by extensivedialysis against 50 mM Tris-Cl pH 8.0, 100 mM NaCl, 1 mM DTT using a 3.5 kDa cut-off membrane. Biotinylation was confirmed by MS analysis and concentration was determined by Bradford assay, after which protein was stored in aliquots at -80 °C.
(§2) Acceptor-labelled SMRT peptide H2N-[…](D2)-OH was dissolved in water by mass to give a 500 µM stock solution which was stored at -20 °C. Acceptor-labelled NCOR peptide H2N-[…](Alexa Fluor 647)-OH and acceptor-labelled BCOR peptide H2N-[…](Alexa Fluor 647)-OH were dissolved to a nominal concentration of 1 mM in DMSO, and stock solution concentration was determined by absorbance at 650 nm using an extinction coefficient of 270,000 M-1cm^-1. […]

rat BCL6 and SMRT = molecular target: T2, rat BCL6 and SMRT (Rattus norvegicus, UniProt B2GUV8, C67R/C84N/C8Q); assay: BCL6 TR-FRET assay, rat BCL6 and SMRT; format: binding
T2 construct: BCL6-Flag-6H-Avi (5-129) C8Q, C67R, C84N proteins; Flag (C); 6H (His6) (C); made in house; host or cells: E. coli
Experimental: as §1, §2

[1] = Tolerability in the immunization model (body weight, signs of toxicity, cytokines); format: in vivo, mouse
Experimental: Male CD1 mice (30–40 g, 8–9 weeks of age) were randomized into study treatment groups, housed individually and allowed to acclimatize under standard laboratory conditions for a minimum of 5 days prior to commencement of the study. Mice received food and water ad libitum. The experiment was performed in a certified dedicated in vivo experimental laboratory at the GlaxoSmithKline Medicines Research Centre, Stevenage, United Kingdom. The four treatment groups were (1) unimmunized and untreated (naive group) (n = 4); (2) intraperitoneal vehicle (n = 13), (3) GSK137 15 mg/kg (n = 14), and (4) GSK137 30 mg/kg (n = 14). Groups (2) to (4) were given intraperitoneal immunization with TNP–KLH (100 μg) on day 0, vehicle was 1% methylcellulose in water + 0.1% sodium lauryl sulphate, and compound or vehicle was given to groups (2) to (4) by oral gavage three times per day from day −1 to day +12. Blood samples were collected by tail vein for measurement of compound, IgM and IgG levels on days 0, 5, 8, and 12 ahead of immunization/first daily dose. On day 8, blood samples were also taken (n = 7) at 0.5, 1.5, 3, 5, or 7 h after first daily dose. On day 12, spleens were collected, weighed, and placed into Dulbecco's modified Eagle's medium on wet ice for analysis by flow cytometry.
To determine cytokine and chemokine levels plasma samples were analysed by electrochemiluminescence assay using a custom mouse multiplex kit (K15355K-4, Meso Scale Diagnostics (MSD), Rockville, MD, USA) to measure IFNγ, IL-6, IL-10, TNF, MCP-1, KC, IL-12, IL1b, IL-13 and IL17a according to the manufacturer’s protocol. Plates were read using an MSD Sector Imager 6000 and analysed with Discovery workbench software v4.0.11, cytokine data were back-fitted to the MSD standard curve.

SMILES | IC50 (BCL6 BTB-POZ domain) [nM] | pIC50 Mouse TR-FRET SMRT (mouse BCL6 and SMRT) | pIC50 Rat TR-FRET SMRT (rat BCL6 and SMRT) | mouse weights vs vehicle group ([1]; 15 and 30 mg/kg orally TID, over the experiment) | overt signs of toxicity ([1]; at the doses used (15 and 30 mg/kg)) | levels of a panel of cytokines vs vehicle ([1]; mouse, in vivo)
CNC(=O)COc1cc2cc(Nc3nc(N4C[C@H](C)C[C@H](C)C4)ncc3Cl)ccc2n(C)c1=O [BI3802, reference compound] | < 3 |  |  |  |  | 
Cc1ncccc1[C@H]1C[C@@H](c2cccc3nc(N)ccc23)Nc2c(F)cnn21 [GSK137, 5-((5S,7R)-3-Fluoro-7-(2-methylpyridin-3-yl)-4,5,6,7-tetrahydropyrazolo[1,5-a]pyrimidin-5-yl)quinolin-2-amine] |  | 7.8 | 7.6 | did not vary significantly | no overt signs of toxicity | either undetectable or, if detectable, did not differ significantly
